In ChEMBL document CHEMBL4387741, “Optimization of novel reversible Bruton's tyrosine kinase inhibitors identified using Tethering-fragment-based screens” (Bioorg Med Chem, 2019):

Columns and labels:
[1] = molecular target: Death-associated protein kinase 2 (Homo sapiens) (UniProt Q9UIK4); experiment: Inhibition of wild-type human full length DAPK2 (M1 to S370 residues) expressed in bacterial expression system at 1 uM by Kinomescan method relative to control
[2] = molecular target: Ephrin type-B receptor 6 (Homo sapiens) (UniProt O15197); experiment: Inhibition of wild-type human partial length EPHB6 (Q634 to P948 residues) expressed in mammalian expression system at 1 uM by Kinomescan method relative to control
[3] = molecular target: Mitogen-activated protein kinase 3 (Homo sapiens) (UniProt P27361); experiment: Inhibition of wild-type human full length ERK1 (M1 to P379 residues) expressed in bacterial expression system at 1 uM by Kinomescan method relative to control
[4] = molecular target: Receptor-type tyrosine-protein kinase FLT3 (Homo sapiens) (UniProt P36888); experiment: Inhibition of wild-type human partial length autoinhibited FLT3 (H564 to Y969 residues) expressed in mammalian expression system at 1 uM by Kinomescan method relative to control
[5] = tested on: Mast/stem cell growth factor receptor Kit (Homo sapiens), P10721 [UNDEFINED MUTATION]; experiment: Inhibition of human partial length KIT V559D/V654 double mutant (Y545 to D952 residues) expressed in bacterial expression system at 1 uM by Kinomescan method relative to control
Sequence of Mast/stem cell growth factor receptor Kit (Homo sapiens), P10721 [UNDEFINED MUTATION] (P10721 whole entry, looked up, stated change not applied, the tested form may be a part): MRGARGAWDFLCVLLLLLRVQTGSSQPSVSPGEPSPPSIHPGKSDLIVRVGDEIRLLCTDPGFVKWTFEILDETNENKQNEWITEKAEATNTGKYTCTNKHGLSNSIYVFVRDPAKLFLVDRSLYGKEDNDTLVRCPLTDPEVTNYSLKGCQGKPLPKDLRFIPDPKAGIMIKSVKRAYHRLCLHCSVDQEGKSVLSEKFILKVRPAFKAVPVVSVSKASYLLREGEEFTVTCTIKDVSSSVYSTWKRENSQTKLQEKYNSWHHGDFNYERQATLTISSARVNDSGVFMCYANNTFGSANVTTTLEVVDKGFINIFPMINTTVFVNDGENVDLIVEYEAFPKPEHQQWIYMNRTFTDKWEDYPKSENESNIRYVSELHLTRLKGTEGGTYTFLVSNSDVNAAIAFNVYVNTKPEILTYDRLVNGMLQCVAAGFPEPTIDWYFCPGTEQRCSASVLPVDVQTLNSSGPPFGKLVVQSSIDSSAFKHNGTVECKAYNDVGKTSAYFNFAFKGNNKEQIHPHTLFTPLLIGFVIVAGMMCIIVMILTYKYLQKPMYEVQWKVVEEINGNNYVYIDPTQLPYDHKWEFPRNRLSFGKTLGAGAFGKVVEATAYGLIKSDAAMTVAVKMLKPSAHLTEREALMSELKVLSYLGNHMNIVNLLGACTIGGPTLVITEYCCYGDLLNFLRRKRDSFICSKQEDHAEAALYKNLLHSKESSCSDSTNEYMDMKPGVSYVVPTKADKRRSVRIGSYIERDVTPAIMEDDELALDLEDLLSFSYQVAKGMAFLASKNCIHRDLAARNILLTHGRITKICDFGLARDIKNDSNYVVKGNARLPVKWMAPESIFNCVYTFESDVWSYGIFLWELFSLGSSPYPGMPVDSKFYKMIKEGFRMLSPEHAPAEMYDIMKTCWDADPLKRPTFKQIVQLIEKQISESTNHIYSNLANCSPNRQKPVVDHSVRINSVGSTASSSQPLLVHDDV

[6] = molecular target: Serine/threonine-protein kinase Nek6 (Homo sapiens) (UniProt Q9HC98); experiment: Inhibition of wild-type human full length NEK6 (M8 to T313 residues) expressed in bacterial expression system at 1 uM by Kinomescan method relative to control
[7] = molecular target: Serine/threonine-protein kinase Sgk2 (Homo sapiens) (UniProt Q9HBY8); experiment: Inhibition of wild-type human partial length SGK2 (L54 to C427 residues) expressed in mammalian expression system at 1 uM by Kinomescan method relative to control
[8] = molecular target: Serine/threonine-protein kinase Sgk3 (Homo sapiens) (UniProt Q96BR1); experiment: Inhibition of wild-type human partial length SGK3 (M119 to L496 residues) expressed in mammalian expression system at 1 uM by Kinomescan method relative to control
[9] = molecular target: STE20-like serine/threonine-protein kinase (Homo sapiens) (UniProt Q9H2G2); experiment: Inhibition of wild-type human partial length SLK (S14 to A307 residues) expressed in bacterial expression system at 1 uM by Kinomescan method relative to control
[10] = molecular target: Tyrosine-protein kinase ABL1 (Homo sapiens) (UniProt P00519); experiment: Inhibition of wild-type human non-phosphorylated ABL1 (S229 to K512 residues) expressed in mammalian expression system at 10 uM by Kinomescan method relative to control
[11] = molecular target: Serine/threonine-protein kinase B-raf (Homo sapiens) (UniProt P15056); experiment: Inhibition of wild-type human partial length BRAF (S429 to E741 residues) expressed in mammalian expression system at 10 uM by Kinomescan method relative to control
Sequence of Serine/threonine-protein kinase B-raf (Homo sapiens) (P15056 whole entry, the tested form may be a part): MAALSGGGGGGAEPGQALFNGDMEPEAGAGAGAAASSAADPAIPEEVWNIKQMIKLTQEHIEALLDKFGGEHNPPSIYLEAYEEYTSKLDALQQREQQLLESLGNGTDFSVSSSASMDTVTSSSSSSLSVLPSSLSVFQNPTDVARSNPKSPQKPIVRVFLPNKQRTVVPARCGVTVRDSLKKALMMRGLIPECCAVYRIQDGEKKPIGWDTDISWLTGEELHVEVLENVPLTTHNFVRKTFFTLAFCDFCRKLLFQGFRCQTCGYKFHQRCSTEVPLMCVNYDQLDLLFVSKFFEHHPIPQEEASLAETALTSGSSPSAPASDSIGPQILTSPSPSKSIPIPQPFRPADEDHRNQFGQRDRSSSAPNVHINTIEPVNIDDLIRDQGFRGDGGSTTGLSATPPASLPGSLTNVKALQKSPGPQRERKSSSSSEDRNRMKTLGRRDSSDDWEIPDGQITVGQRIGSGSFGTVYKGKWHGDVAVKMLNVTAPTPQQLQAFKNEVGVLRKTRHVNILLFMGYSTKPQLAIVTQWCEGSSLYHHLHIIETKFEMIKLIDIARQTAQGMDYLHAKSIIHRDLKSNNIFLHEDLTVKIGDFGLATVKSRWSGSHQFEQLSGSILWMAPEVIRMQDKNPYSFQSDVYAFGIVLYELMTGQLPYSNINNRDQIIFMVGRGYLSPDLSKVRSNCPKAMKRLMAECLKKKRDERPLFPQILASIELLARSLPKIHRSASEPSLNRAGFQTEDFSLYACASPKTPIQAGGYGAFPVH

[12] = molecular target: Serine/threonine-protein kinase BRSK1 (Homo sapiens) (UniProt Q8TDC3); experiment: Inhibition of wild-type human partial length BRSK1 (M1 to E754 residues) expressed in bacterial expression system at 10 uM by Kinomescan method relative to control
[13] = molecular target: Calcium/calmodulin-dependent protein kinase type 1 (Homo sapiens) (UniProt Q14012); experiment: Inhibition of wild-type human full length CAMK1 (M1 to L370 residues) expressed in bacterial expression system at 10 uM by Kinomescan method relative to control
Sequence of Calcium/calmodulin-dependent protein kinase type 1 (Homo sapiens) (Q14012 whole entry, looked up, the tested form may be a part): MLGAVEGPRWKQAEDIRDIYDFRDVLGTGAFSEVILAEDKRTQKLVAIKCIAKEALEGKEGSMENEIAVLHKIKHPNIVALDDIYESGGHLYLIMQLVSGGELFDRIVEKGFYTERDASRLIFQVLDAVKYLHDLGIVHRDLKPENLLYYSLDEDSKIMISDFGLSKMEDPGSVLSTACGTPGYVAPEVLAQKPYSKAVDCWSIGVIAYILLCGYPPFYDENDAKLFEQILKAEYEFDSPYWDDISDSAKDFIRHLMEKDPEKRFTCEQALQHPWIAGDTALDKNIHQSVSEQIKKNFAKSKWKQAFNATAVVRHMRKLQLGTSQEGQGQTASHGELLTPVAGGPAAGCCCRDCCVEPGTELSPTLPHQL

[14] = molecular target: Calcium/calmodulin-dependent protein kinase type 1B (Homo sapiens) (UniProt Q6P2M8); experiment: Inhibition of wild-type human partial length CAMK1B (W9 to A311 residues) expressed in mammalian expression system at 10 uM by Kinomescan method relative to control
[15] = molecular target: Casein kinase I isoform gamma-1 (Homo sapiens) (UniProt Q9HCP0); experiment: Inhibition of wild-type human partial length CSNK1G1 (T15 to S353 residues) expressed in bacterial expression system at 10 uM by Kinomescan method relative to control
Sequence of Casein kinase I isoform gamma-1 (Homo sapiens) (Q9HCP0 whole entry, looked up, the tested form may be a part, canonical isoform): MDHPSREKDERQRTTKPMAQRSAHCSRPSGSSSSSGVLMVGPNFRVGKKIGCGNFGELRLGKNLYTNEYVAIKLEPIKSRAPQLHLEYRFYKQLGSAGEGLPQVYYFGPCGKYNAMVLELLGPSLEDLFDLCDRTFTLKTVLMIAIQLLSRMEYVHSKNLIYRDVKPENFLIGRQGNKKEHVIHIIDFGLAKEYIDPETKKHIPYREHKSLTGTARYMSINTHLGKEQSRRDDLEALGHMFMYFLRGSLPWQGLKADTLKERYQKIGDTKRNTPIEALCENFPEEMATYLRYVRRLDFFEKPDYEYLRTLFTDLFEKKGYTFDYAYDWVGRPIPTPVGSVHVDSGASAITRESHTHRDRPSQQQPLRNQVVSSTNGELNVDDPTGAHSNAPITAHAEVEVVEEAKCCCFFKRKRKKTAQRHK

[16] = tested on: Epidermal growth factor receptor (Homo sapiens), P00533 [UNDEFINED MUTATION]; experiment: Inhibition of human partial length EGFR L747-E749del/A750P mutant expressed in bacterial expression system at 10 uM by Kinomescan method relative to control
[17] = tested on: Mast/stem cell growth factor receptor Kit (Homo sapiens), P10721 [L576P]; experiment: Inhibition of human partial length KIT L576P mutant (Y545 to D952 residues) expressed in bacterial expression system at 10 uM by Kinomescan method relative to control
[18] = molecular target: Serine/threonine-protein kinase MAK (Homo sapiens) (UniProt P20794); experiment: Inhibition of wild-type human partial length MAK (M1 to P314 residues) expressed in bacterial expression system at 10 uM by Kinomescan method relative to control
[19] = molecular target: Mitogen-activated protein kinase kinase kinase 1 (Homo sapiens) (UniProt Q13233); experiment: Inhibition of wild-type human partial length MAP3K1 (L1202 to W1512 residues) expressed in mammalian expression system at 10 uM by Kinomescan method relative to control
[20] = molecular target: Mitogen-activated protein kinase kinase kinase 11 (Homo sapiens) (UniProt Q16584); experiment: Inhibition of wild-type human partial length MLK3 (I77 to W399 residues) expressed in bacterial expression system at 10 uM by Kinomescan method relative to control
Sequence of Mitogen-activated protein kinase kinase kinase 11 (Homo sapiens) (Q16584 whole entry, looked up, the tested form may be a part): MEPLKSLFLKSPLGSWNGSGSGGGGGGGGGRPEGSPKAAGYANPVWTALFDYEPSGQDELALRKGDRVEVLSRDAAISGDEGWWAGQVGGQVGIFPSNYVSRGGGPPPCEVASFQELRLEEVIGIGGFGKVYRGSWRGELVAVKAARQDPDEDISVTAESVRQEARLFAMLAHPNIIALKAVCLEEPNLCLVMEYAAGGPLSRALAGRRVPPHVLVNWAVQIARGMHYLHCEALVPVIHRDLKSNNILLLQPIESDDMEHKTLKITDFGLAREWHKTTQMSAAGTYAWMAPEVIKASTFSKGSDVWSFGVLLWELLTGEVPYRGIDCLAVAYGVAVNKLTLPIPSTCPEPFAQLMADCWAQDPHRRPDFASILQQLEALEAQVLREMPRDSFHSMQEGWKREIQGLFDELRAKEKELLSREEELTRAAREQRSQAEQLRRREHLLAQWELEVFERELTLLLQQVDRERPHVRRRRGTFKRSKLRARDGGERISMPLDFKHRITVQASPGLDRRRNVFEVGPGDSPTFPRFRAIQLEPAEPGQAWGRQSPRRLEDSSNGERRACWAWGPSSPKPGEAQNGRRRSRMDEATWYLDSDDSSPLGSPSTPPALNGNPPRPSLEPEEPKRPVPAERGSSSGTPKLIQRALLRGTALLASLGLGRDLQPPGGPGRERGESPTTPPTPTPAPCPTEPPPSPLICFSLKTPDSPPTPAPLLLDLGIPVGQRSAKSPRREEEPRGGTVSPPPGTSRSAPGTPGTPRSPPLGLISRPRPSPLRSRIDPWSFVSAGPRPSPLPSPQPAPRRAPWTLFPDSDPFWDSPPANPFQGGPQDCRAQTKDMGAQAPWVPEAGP

[21] = molecular target: Mitogen-activated protein kinase 11 (Homo sapiens) (UniProt Q15759); experiment: Inhibition of wild-type human full length p38-beta (M1 to Q364 residues) expressed in bacterial expression system at 10 uM by Kinomescan method relative to control
[22] = molecular target: 1-phosphatidylinositol 3-phosphate 5-kinase (Homo sapiens) (UniProt Q9Y2I7); experiment: Inhibition of wild-type human partial length PIKFYVE (F1512 to C2098 residues) expressed in mammalian expression system at 10 uM by Kinomescan method relative to control
[23] = molecular target: Serine/threonine-protein kinase pim-2 (Homo sapiens) (UniProt Q9P1W9); experiment: Inhibition of wild-type human partial length PIM2 (M1 to E291 residues) expressed in bacterial expression system at 10 uM by Kinomescan method relative to control
[24] = molecular target: Serine/threonine-protein kinase pim-3 (Homo sapiens) (UniProt Q86V86); experiment: Inhibition of wild-type human partial length PIM3 (G16 to A317 residues) expressed in bacterial expression system at 10 uM by Kinomescan method relative to control
[25] = molecular target: Angiopoietin-1 receptor (Homo sapiens) (UniProt Q02763); experiment: Inhibition of wild-type human partial length TIE2 (N804 to T1112 residues) expressed in bacterial expression system at 10 uM by Kinomescan method relative to control
Sequence of Angiopoietin-1 receptor (Homo sapiens) (Q02763 whole entry, the tested form may be a part): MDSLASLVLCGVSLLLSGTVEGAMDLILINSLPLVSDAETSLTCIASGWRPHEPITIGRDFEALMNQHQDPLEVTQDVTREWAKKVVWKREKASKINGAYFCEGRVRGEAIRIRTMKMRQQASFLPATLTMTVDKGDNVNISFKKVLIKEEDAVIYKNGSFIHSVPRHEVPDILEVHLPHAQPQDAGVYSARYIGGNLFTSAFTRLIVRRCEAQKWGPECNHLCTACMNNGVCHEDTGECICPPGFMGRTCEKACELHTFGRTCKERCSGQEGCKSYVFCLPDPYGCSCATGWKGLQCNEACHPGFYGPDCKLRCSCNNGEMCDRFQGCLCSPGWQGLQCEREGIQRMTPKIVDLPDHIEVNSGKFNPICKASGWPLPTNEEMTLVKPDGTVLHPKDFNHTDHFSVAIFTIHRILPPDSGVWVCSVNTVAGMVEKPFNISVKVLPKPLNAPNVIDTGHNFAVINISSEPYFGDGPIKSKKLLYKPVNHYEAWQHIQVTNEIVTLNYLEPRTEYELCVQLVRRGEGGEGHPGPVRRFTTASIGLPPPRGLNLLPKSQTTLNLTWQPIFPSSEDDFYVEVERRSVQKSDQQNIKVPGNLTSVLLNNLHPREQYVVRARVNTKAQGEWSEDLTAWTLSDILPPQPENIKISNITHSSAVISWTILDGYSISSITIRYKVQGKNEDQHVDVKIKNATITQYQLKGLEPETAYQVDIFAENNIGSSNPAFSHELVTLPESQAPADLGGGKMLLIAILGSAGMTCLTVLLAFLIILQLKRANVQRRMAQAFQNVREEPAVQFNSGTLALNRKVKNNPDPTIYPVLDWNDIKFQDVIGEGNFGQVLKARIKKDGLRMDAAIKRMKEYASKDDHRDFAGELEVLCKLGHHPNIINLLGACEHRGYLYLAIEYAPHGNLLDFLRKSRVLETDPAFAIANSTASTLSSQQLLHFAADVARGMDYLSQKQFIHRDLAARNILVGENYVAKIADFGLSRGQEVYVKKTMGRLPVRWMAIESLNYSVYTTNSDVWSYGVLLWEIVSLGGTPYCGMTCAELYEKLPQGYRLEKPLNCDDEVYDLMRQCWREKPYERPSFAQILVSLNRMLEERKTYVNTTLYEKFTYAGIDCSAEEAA

[26] = molecular target: Tyrosine-protein kinase TXK (Homo sapiens) (UniProt P42681); experiment: Inhibition of wild-type human partial length TXK (L238 to W527 residues) expressed in bacterial expression system at 10 uM by Kinomescan method relative to control

Sequence of Death-associated protein kinase 2 (Homo sapiens) (Q9UIK4 whole entry, looked up, the tested form may be a part): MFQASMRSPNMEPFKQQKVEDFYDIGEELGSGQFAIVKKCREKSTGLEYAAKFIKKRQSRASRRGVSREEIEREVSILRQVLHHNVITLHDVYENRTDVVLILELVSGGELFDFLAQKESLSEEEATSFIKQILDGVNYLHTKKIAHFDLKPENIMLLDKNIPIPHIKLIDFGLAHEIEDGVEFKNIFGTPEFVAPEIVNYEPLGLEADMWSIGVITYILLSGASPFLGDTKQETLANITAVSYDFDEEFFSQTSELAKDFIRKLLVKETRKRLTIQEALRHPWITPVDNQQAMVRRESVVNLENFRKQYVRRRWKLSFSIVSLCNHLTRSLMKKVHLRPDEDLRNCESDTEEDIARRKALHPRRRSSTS

`O=C(Nc1cccc([C@@H]2CN(c3ncnc4[nH]ccc34)CCN2CCO)c1)Nc1c(F)cccc1N1CCCC1` was tested. Which inhibition [1] did it give?
The inhibition was 6.1%.

What about the inhibition [2] of the same molecule?
The inhibition was 100%.

What about the inhibition [3] of the same molecule?
The inhibition was 100%.

And the inhibition [4]?
The inhibition was 68%.

What about the inhibition [5] of the same molecule?
The inhibition was 65%.

What about the inhibition [6] of the same molecule?
Its inhibition is 86%.

And the inhibition [7]?
The inhibition was 63%.

And the inhibition [8]?
Its inhibition is 84%.

And the inhibition [9]?
The inhibition was 88%.

For `O=C(Nc1cccc([C@H]2CCCN(c3ncnc4[nH]ccc34)C2)c1)Nc1ccccc1N1CCCC1`, which inhibition [10] is on record?
Its inhibition is 25%.

What about the inhibition [11] of the same molecule?
Its inhibition is 35%.

What about the inhibition [12] of the same molecule?
Its inhibition is 95%.

What about the inhibition [13] of the same molecule?
Its inhibition is 24%.

What about the inhibition [14] of the same molecule?
Its inhibition is 46%.

What about the inhibition [15] of the same molecule?
Its inhibition is 99%.

What about the inhibition [16] of the same molecule?
Its inhibition is 82%.

And the inhibition [17]?
Its inhibition is 0.2%.

And the inhibition [18]?
The inhibition was 100%.

And the inhibition [19]?
Its inhibition is 39%.

What about the inhibition [20] of the same molecule?
The inhibition was 85%.

What about the inhibition [21] of the same molecule?
The inhibition was 100%.

What about the inhibition [22] of the same molecule?
Its inhibition is 77%.

And the inhibition [23]?
The inhibition was 100%.

What about the inhibition [24] of the same molecule?
Its inhibition is 89%.

And the inhibition [25]?
The inhibition was 75%.

What about the inhibition [26] of the same molecule?
The inhibition was 94%.
